Reference: BigSolDB 2.1

Nc1cccc(N)n1
Details | solubility (mole fraction)
in ethanol, 266.95 K | 0.0751
in ethanol, 270.35 K | 0.0853
in ethanol, 274.15 K | 0.0992
in ethanol, 277.45 K | 0.108
in ethanol, 281.15 K | 0.123
in ethanol, 286.35 K | 0.148
in ethanol, 290.15 K | 0.166
in ethanol, 293.55 K | 0.182
in ethanol, 297.15 K | 0.204
in ethanol, 301.15 K | 0.226
in ethanol, 304.55 K | 0.236
in ethanol, 307.95 K | 0.266
in ethanol, 312.05 K | 0.282
in ethanol, 316.25 K | 0.319
in ethanol, 321.25 K | 0.342
in ethylbenzene, 273.25 K | 0.00022
in ethylbenzene, 277.15 K | 0.00026
in ethylbenzene, 282.25 K | 0.00033
in ethylbenzene, 285.55 K | 0.00035
in ethylbenzene, 289.45 K | 0.00046
in ethylbenzene, 293.05 K | 0.00049
in ethylbenzene, 298.65 K | 0.00066
in ethylbenzene, 302.25 K | 0.00069
in ethylbenzene, 305.35 K | 0.00086
in ethylbenzene, 309.55 K | 0.0009
in ethylbenzene, 313.15 K | 0.00113
in ethylbenzene, 317.35 K | 0.0012
in ethylbenzene, 321.25 K | 0.0015
in ethylbenzene, 326.15 K | 0.00164
in ethylbenzene, 329.45 K | 0.00197
in ethylbenzene, 333.35 K | 0.00212
in ethylbenzene, 336.95 K | 0.00252
in ethylbenzene, 341.05 K | 0.00288
in ethylbenzene, 346.25 K | 0.0033
in ethylbenzene, 349.55 K | 0.00385
in ethylbenzene, 353.05 K | 0.0043
in ethylbenzene, 357.05 K | 0.00474
in ethylbenzene, 361.15 K | 0.00577
in isopropanol, 266.25 K | 0.0222
in isopropanol, 269.95 K | 0.028
in isopropanol, 274.15 K | 0.0302
in isopropanol, 277.55 K | 0.0379
in isopropanol, 281.15 K | 0.0401
in isopropanol, 285.65 K | 0.0512
in isopropanol, 290.15 K | 0.0565
in isopropanol, 293.65 K | 0.068
in isopropanol, 297.25 K | 0.0732
in isopropanol, 301.15 K | 0.0887
in isopropanol, 305.15 K | 0.0976
in isopropanol, 308.25 K | 0.114
in isopropanol, 311.15 K | 0.12
in isopropanol, 315.85 K | 0.147
in isopropanol, 319.25 K | 0.159
in methanol, 266.15 K | 0.0598
in methanol, 269.95 K | 0.066
in methanol, 274.15 K | 0.0779
in methanol, 278.05 K | 0.0888
in methanol, 281.15 K | 0.0933
in methanol, 285.95 K | 0.111
in methanol, 290.15 K | 0.125
in methanol, 297.15 K | 0.15
in methanol, 301.15 K | 0.165
in methanol, 304.55 K | 0.178
in methanol, 307.95 K | 0.188
in methanol, 311.15 K | 0.207
in methanol, 317.85 K | 0.233
in o-xylene, 273.35 K | 0.00128
in o-xylene, 277.15 K | 0.0014
in o-xylene, 282.25 K | 0.00185
in o-xylene, 285.55 K | 0.00201
in o-xylene, 289.45 K | 0.00252
in o-xylene, 293.65 K | 0.00283
in o-xylene, 297.55 K | 0.00351
in o-xylene, 302.25 K | 0.00395
in o-xylene, 305.35 K | 0.00469
in o-xylene, 309.55 K | 0.00517
in o-xylene, 314.15 K | 0.0064
in o-xylene, 317.35 K | 0.00695
in o-xylene, 321.25 K | 0.00838
in o-xylene, 325.95 K | 0.00937
in o-xylene, 329.45 K | 0.011
in o-xylene, 333.35 K | 0.0121
in o-xylene, 336.95 K | 0.0144
in o-xylene, 341.15 K | 0.0153
in o-xylene, 346.25 K | 0.0194
in o-xylene, 349.55 K | 0.0226
in o-xylene, 353.45 K | 0.024
in o-xylene, 357.05 K | 0.0292
in o-xylene, 361.05 K | 0.034
in o-xylene, 361.25 K | 0.0367
in toluene, 273.25 K | 0.00149
in toluene, 277.15 K | 0.00191
in toluene, 281.25 K | 0.00214
in toluene, 285.55 K | 0.0027
in toluene, 289.45 K | 0.00304
in toluene, 293.65 K | 0.00375
in toluene, 297.55 K | 0.00417
in toluene, 301.45 K | 0.0051
in toluene, 305.35 K | 0.00558
in toluene, 309.55 K | 0.00704
in toluene, 313.45 K | 0.00733
in toluene, 317.35 K | 0.00919
in toluene, 321.25 K | 0.00942
in toluene, 325.55 K | 0.0124
in toluene, 329.45 K | 0.0127
in toluene, 333.35 K | 0.0162
in toluene, 337.25 K | 0.0164
in toluene, 341.15 K | 0.0207
in toluene, 345.65 K | 0.022
in toluene, 349.55 K | 0.0277
in toluene, 353.45 K | 0.0283
in toluene, 357.35 K | 0.0355
